Values quoted from earlier work, collected in patent publication US11766428B2 (TAVANTA THERAPEUTICS HUNGARY INCORPORATED, priority 2018, dated 2023).

Experiments:
[1] = not given; remark: listed apart in the source

CCOC(=O)C1=C(COCCN)NC(C)=C(C(=O)OC)C1c1ccccc1Cl (racemic) [Amlodipine besylate, 3-ethyl-5-methyl (±)-2-[(2-aminoethoxy)methyl]-4-(2-chlorophenyl)-1,4-dihydro-6-methyl-3,5-pyridinedicarboxylate, monobenzenesulphonate]
solubility in ethanol: sparingly soluble
solubility in water: slightly soluble

CCOC(=O)C1=C(COCCN)NC(C)=C(C(=O)OC)C1c1ccccc1Cl (stereo not shown) [amlodipine]
circulating drug bound to plasma proteins ([1]; ex vivo, hypertensive patients): approximately 93%
influence of renal impairment on pharmacokinetics ([1]; human, in vivo): not significantly influenced
parent compound excreted in the urine ([1]; human, in vivo): 10%
therapeutic plasma level ([1]; human, in vivo): 3 to 10 ng/mL
effect of food on bioavailability ([1]; oral): not altered by the presence of food
